Read-outs that look alike come from different tables or passages of the source.
Tests used:
BRM = biological target: T1, BRM (Homo sapiens, UniProt P51531); assay: ATPase catalytic activity of BRM, ADP-Glo in vitro biochemical assay; conditions: for IC50: 30 nM BRM, 400 μM ATP; for Ratio* (BRG1 IC50 (μM) divided by BRM IC50 (μM)): selectivity ratio BRG1 IC50 / BRM IC50
T1 construct: made in house; host or cells: High Five insect cells
Outline: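 ADP-Glo luminescence, after depletion of leftover ATP and conversion of ADP, reported the activity. The 1 h room-temperature reaction held 400 μM ATP, 20 nM salmon sperm DNA and 30 nM BRM in 20 mM Tris pH 8, 20 mM MgCl2, 50 mM NaCl, 0.1% Tween-20, 1 mM DTT.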

BRG-1 = biological target: T2, BRG-1 (Homo sapiens, UniProt P51532); assay: ATPase catalytic activity of BRG-1, ADP-Glo in vitro biochemical assay; conditions: 30 nM BRG-1, 400 μM ATP, read-out: BRG1 IC50
T2 construct: made in house; host or cells: High Five insect cells
T2 sequence (P51532 whole entry): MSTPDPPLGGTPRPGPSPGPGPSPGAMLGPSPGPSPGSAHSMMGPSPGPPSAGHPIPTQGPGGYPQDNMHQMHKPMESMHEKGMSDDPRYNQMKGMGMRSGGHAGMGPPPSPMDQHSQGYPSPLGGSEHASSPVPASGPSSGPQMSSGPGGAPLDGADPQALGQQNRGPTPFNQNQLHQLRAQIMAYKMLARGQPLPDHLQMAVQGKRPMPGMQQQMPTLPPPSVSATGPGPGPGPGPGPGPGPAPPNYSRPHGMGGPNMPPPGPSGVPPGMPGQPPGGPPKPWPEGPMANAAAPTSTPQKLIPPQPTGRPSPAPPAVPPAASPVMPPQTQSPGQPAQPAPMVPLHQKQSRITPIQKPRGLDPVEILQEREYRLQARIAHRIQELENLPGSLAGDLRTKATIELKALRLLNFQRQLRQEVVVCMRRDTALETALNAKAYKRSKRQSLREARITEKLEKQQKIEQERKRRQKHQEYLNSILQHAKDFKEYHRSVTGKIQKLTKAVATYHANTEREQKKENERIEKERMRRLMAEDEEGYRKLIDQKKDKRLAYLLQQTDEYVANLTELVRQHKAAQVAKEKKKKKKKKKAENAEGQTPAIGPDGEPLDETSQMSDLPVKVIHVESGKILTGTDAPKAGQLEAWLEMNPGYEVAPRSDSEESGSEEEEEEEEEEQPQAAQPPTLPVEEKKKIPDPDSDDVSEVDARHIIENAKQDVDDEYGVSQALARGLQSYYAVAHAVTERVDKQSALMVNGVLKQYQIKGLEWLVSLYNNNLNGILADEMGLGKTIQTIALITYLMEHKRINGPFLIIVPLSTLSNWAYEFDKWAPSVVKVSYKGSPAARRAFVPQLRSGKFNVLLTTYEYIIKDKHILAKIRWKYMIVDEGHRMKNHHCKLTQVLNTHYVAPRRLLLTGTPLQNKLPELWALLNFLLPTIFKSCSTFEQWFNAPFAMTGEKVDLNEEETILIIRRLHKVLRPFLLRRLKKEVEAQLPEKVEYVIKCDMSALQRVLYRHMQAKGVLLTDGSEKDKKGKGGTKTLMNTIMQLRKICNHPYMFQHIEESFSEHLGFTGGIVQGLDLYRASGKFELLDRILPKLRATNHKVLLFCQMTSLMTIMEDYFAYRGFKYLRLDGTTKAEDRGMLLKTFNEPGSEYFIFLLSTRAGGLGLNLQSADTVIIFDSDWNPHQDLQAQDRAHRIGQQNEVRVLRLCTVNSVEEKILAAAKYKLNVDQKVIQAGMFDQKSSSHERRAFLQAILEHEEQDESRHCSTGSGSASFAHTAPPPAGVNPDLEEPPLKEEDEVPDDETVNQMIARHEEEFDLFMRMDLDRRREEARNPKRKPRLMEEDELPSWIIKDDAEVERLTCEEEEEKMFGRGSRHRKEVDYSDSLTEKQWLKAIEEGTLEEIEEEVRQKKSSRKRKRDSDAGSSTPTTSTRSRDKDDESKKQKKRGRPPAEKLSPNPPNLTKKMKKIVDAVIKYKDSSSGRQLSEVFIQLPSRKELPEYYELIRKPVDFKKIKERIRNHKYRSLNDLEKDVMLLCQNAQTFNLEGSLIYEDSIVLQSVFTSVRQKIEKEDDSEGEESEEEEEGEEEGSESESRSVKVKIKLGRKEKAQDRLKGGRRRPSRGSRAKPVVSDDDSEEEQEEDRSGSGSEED
Outline: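 Once the ATPase reaction finished, leftover ATP was depleted over 40 minutes at room temperature. Generated ADP was next turned back into ATP during a 60-minute room-temperature step. Luciferase-derived light was then measured.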

[1] = ATPase catalytic activity, ADP-Glo

T1 sequence (P51531 whole entry): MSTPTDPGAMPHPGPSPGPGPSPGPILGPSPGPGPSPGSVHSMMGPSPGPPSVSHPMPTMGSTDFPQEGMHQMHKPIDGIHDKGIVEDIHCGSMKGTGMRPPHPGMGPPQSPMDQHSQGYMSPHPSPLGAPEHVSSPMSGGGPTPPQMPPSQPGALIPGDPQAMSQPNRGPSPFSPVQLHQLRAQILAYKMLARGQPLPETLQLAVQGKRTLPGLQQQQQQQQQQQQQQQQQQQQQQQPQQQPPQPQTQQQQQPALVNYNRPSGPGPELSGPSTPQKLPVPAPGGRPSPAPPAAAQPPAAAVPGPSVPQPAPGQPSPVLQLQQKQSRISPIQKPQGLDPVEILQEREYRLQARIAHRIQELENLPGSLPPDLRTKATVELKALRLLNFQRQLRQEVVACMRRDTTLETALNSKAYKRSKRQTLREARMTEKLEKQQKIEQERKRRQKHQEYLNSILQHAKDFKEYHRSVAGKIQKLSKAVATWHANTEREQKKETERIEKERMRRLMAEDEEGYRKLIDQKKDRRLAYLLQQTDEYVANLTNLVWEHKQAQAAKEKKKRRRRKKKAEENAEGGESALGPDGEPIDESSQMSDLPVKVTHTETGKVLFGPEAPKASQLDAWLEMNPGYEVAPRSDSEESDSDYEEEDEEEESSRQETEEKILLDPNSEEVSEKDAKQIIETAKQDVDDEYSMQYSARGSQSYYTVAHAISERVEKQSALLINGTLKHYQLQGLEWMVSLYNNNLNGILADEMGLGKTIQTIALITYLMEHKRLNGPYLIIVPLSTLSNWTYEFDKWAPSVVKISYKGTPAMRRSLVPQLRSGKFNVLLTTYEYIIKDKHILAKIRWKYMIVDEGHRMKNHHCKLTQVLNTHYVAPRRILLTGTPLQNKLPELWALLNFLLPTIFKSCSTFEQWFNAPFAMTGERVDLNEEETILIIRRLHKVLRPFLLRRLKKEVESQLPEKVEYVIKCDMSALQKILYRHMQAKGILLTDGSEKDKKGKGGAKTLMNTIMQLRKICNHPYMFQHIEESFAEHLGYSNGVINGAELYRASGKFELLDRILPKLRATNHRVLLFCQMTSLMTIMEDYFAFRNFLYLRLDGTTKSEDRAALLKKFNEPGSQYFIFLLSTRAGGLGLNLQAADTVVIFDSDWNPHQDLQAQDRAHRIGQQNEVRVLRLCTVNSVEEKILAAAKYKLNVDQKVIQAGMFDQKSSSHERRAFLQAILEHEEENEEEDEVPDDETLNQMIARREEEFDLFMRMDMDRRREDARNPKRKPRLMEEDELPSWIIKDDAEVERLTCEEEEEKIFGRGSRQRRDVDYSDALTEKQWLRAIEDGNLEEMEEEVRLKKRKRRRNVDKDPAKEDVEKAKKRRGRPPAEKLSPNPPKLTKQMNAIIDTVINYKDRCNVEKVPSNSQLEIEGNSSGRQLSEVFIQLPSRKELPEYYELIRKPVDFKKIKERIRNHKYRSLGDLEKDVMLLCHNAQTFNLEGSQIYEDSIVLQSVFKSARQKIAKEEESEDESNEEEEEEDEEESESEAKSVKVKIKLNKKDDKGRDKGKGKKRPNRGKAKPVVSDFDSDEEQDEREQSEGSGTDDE

SMILES | IC50 (BRM; [1]) [nM] | Ratio* (BRM; ratio of BRG1 IC50 to BRM IC50) | IC50 (BRG-1; [1]) [nM] | IC50 (BRM; ADP-Glo ATPase assay) [nM] | Ratio* (BRG1 IC50 (μM) divided by BRM IC50 (μM)) (BRM) | IC50 (BRG-1; ADP-Glo ATPase assay) [nM] | Ratio* (BRM; ratio BRG1 IC50 / BRM IC50)
COc1c(-c2ccc3cnc(CNC(=O)c4ccc5c(c4)S(=O)(=O)CCOC5)cc3n2)cccc1C1CC1 [Compound 430] | 477 | 5.06 | 2410 |  |  |  | 
C[C@@H]1CN(c2cccc(-c3ccc4cnc(CNC(=O)c5ccc6c(c5)S(=O)(=O)CC[C@@H]6C)cc4n3)n2)C[C@H](C)O1 [Compound 483] | 43.8 | 27.99 | 1230 |  |  |  | 
COc1cccc2c1CCCN2c1ccc2cnc(CNC(=O)c3ccc4c(c3)S(=O)(=O)CCOC4)cc2n1 [Compound 492] | 4.4 | 4.38 | 19.1 |  |  |  | 
CC(F)(F)c1ccc2c(c1)N(c1ccc3cnc(CNC(=O)c4ccc5c(c4)S(=O)(=O)CCOC5)cc3n1)CCO2 [Compound 682] | 10.3 | 15.88 | 164 |  |  |  | 
O=C(NCc1cc2nc(-c3cccc(OCC(F)F)c3)ccc2cn1)c1ccc2c(c1)S(=O)(=O)CCOC2 [Compound 103] |  |  |  | 252 | 10.96 | 2770 | 
CO[C@H]1C[C@H](N(C)c2cccc(-c3ccc4cnc(CNC(=O)c5ccc6c(c5)S(=O)(=O)CCOC6)cc4n3)n2)C1 [Compound 42] |  |  |  | 17.3 | 7.37 | 127 | 
O=C(NCc1cc2nc(N3CCCc4ccc(Cl)nc43)ccc2cn1)c1ccc2c(c1)S(=O)(=O)CCOC2 [Compound 513] | 16.9 | 9.70 | 164 |  |  |  | 
CCN(CC)c1cccc(-c2ccc3cnc(CNC(=O)c4ccc5c(c4)S(=O)(=O)CCOC5)cc3n2)n1 [Compound 83] |  |  |  | 8.1 | 16.64 | 135 | 
COc1ccc(F)c2c1CCCN2c1ccc2cnc(CNC(=O)c3ccc4c(c3)S(=O)(=O)CCOC4)cc2n1 [Compound 718] |  |  |  | 10.5 |  | 99.6 | 9.44
C[C@@H]1CN(c2cccc(-c3ccc4cnc(CNC(=O)c5ccc6c(c5)S(=O)(=O)CCOC6)cc4n3)n2)CCO1 [Compound 225] |  |  |  | 4.6 | 6.29 | 28.7 | 
COc1cc(C2CC2)nc2c1CCCN2c1ccc2cnc(CNC(=O)c3ccc4c(c3)S(=O)(=O)CCOC4)cc2n1 [Compound 771] |  |  |  | 10.5 |  | 172 | 16.35
O=C(NCc1cc2cc(N3CCOc4ccc(C(F)F)nc43)ccc2cn1)c1ccc2c(c1)S(=O)(=O)CCOC2 [Compound 799] |  |  |  | 25.5 |  | 663 | 26.04
CS(=O)(=O)c1cc(C(=O)NCc2cc3nc(N4CCCc5cc(C6CC6)cnc54)ccc3cn2)cnc1C(F)F [Compound 724] |  |  |  | 122 |  | 2250 | 18.41
C[C@@H]1CN(c2cccc(-c3ccc4cnc(CNC(=O)c5cnc6c(c5)S(=O)(=O)CCCCC6)cc4n3)n2)C[C@H](C)O1 [Compound 451] | 5 | 1.60 | 8 |  |  |  | 
COc1ncc2c(c1F)N(c1ccc3cnc(CNC(=O)c4ccc5c(c4)S(=O)(=O)CCOC5)cc3n1)CCC2 [Compound 783] |  |  |  | 31.1 |  | 444 | 14.27
CN(c1cccc(-c2ccc3cnc(CNC(=O)c4ccc5c(c4)S(=O)(=O)CCOC5)cc3n2)n1)C1CC1 [Compound 94] |  |  |  | 32 | 9.02 | 288 | 
O=C(NCc1cc2nc(N3CCCc4ncccc43)ccc2cn1)c1ccc2c(c1)S(=O)(=O)CCOC2 [Compound 156] |  |  |  | 366 | 5.25 | 1920 | 
C[C@@H]1CN(c2cc(-c3ccc4cnc(CNC(=O)c5ccc6c(c5)S(=O)(=O)CCOC6)cc4n3)ccn2)C[C@H](C)O1 [Compound 153] |  |  |  | 46.3 | 9.74 | 451 | 
O=C(NCc1cc2nc(N3CCOc4cc(C5CCC5)cnc43)ccc2cn1)c1ccc2c(c1)S(=O)(=O)CCOC2 [Compound 753] |  |  |  | 14.2 |  | 203 | 14.28

SMILES | IC50 (BRM; [1]) [nM] | Ratio* (BRM; ratio of BRG1 IC50 to BRM IC50) | IC50 (BRG-1; [1]) [nM] | IC50 (BRM; ADP-Glo ATPase assay) [nM] | Ratio* (BRG1 IC50 (μM) divided by BRM IC50 (μM)) (BRM) | IC50 (BRG-1; ADP-Glo ATPase assay) [nM] | Ratio* (BRM; ratio BRG1 IC50 / BRM IC50)
CC(F)(F)CN1CCOc2c(-c3ccc4cnc(CNC(=O)c5ccc6c(c5)S(=O)(=O)CCOC6)cc4n3)cccc21 [Compound 479] | 48.3 | 3.92 | 189 |  |  |  | 
Cn1ccc2c(-c3ccc4cnc(CNC(=O)c5ccc6c(c5)S(=O)(=O)CCOC6)cc4n3)cccc21 [Compound 245] |  |  |  | 18.7 | 9.42 | 176 | 
COc1cc(C(F)F)ccc1-c1ccc2cnc(CNC(=O)c3ccc4c(c3)S(=O)(=O)CCOC4)cc2n1 [Compound 118] |  |  |  | 24.9 | 10.11 | 252 | 
Cc1cc2c(nc1C1CC1)N(c1ccc3cnc(CNC(=O)c4ccc5c(c4)S(=O)(=O)CCOC5)cc3n1)CCC2 [Compound 632] | 58.3 | 19.38 | 1130 |  |  |  | 
O=C(NCc1cc2cc(-c3cncc(C4CC4)n3)ccc2cn1)c1cnc2c(c1)S(=O)(=O)CCOC2 [Compound 248] |  |  |  | 70.2 | 8.41 | 590 | 
C[C@@H]1CN(c2cccc(-c3ccc4cnc(CNC(=O)c5cc(F)c6c(c5)S(=O)(=O)CCOC6)cc4n3)n2)C[C@H](C)O1 [Compound 240] |  |  |  | 6.5 | 3.66 | 23.8 | 
COCCN1c2cccc(-c3ccc4cnc(CNC(=O)c5ccc6c(c5)S(=O)(=O)CCOC6)cc4n3)c2OCC1C (centres unmarked) [Compound 326] | 9.9 | 8.22 | 81 |  |  |  | 
C[C@@H]1Cc2ccc(-c3ccc4cnc(CNC(=O)c5ccc6c(c5)S(=O)(=O)CCOC6)cc4n3)nc2N(C)C1 [Compound 661] | 43.9 | 6.86 | 301 |  |  |  | 
Cc1ccc2c(n1)N(c1ccc3cnc(CNC(=O)c4ccc5c(c4)S(=O)(=O)CCOC5)cc3n1)CCC2 [Compound 315] | 18.4 | 18.47 | 340 |  |  |  | 
COc1nn([C@H]2C[C@@H](F)C2)cc1-c1ccc2cnc(CNC(=O)c3ccc4c(c3)S(=O)(=O)CCOC4)cc2n1 [Compound 148] |  |  |  | 455 | 6.80 | 3090 | 
O=C(NCc1cc2nc(-c3cccc(N4CC5CC(C4)O5)n3)ccc2cn1)c1ccc2c(c1)S(=O)(=O)CCOC2 [Compound 276] |  |  |  | 81.8 | 7.14 | 584 | 
C[C@@H]1CN(c2cccc(-c3ccc4cnc(CNC(=O)c5ccc(Cl)c(S(C)(=O)=O)c5)cc4n3)n2)C[C@H](C)O1 [Compound 213] |  |  |  | 9.5 | 13.94 | 132 | 
CS(=O)(=O)c1cc(C(=O)NCc2cc3nc(-c4cn([C@H]5C[C@H](F)C5)nc4OC(F)F)ccc3cn2)ccc1C(F)F [Compound 348] | 74.3 | 34.42 | 2560 |  |  |  | 
O=C(NCc1cc2nc(-c3cccc(N4CCC4)n3)ccc2nn1)c1ccc2c(c1)S(=O)(=O)CCOC2 [Compound 57] |  |  |  | 8 |  | 118 | 
O=C(NCc1cc2nc(-c3ccccc3OCC3CC3)ccc2cn1)c1ccc2c(c1)S(=O)(=O)CCOC2 [Compound 815] |  |  |  | 193 |  | 1450 | 7.51
CCOc1ccc2c(n1)N(c1ccc3cnc(CNC(=O)c4ccc5c(c4)S(=O)(=O)CCOC5)cc3n1)CCC2 [Compound 576] | 88.9 | 18.86 | 1680 |  |  |  | 
COc1cc2c(cn1)CCCN2c1ccc2cnc(CNC(=O)c3ccc4c(c3)S(=O)(=O)CCOC4)cc2n1 [Compound 768] |  |  |  | 10.7 |  | 126 | 11.76
CS(=O)(=O)c1cc(C(=O)NCc2cc3nc(-c4cccc(C5CC5)n4)ccc3cn2)ccc1C#N [Compound 259] |  |  |  | 467 | 10.71 | 5000 | 
